For orientation: EC50 means the concentration giving half of the maximal effect. The low end stands for greater potency, the high end for weaker potency.

Each structure is given as a SMILES string. A value given as a limit tells only on which side of the number the result lay.

For this assay, the target named is T1, hFXR (Homo sapiens, UniProt Q96RI1).
T1 construct: expressed in transfected cells; host or cells: CV-1 cells
T1 sequence (Q96RI1 1-486): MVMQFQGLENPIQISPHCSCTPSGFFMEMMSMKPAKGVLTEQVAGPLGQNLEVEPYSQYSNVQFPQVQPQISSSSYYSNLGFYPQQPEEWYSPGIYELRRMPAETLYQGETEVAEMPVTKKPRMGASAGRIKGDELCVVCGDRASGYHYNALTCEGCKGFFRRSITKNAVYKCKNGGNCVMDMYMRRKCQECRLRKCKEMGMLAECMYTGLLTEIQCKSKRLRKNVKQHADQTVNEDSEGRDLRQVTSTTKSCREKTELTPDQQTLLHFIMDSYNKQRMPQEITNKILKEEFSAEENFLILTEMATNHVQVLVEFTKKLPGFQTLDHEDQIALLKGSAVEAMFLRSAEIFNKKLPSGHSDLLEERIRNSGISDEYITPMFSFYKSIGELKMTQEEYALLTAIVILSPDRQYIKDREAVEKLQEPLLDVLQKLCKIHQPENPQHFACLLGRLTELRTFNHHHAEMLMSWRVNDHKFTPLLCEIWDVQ
T1 sequence (P19793 1-462 partner): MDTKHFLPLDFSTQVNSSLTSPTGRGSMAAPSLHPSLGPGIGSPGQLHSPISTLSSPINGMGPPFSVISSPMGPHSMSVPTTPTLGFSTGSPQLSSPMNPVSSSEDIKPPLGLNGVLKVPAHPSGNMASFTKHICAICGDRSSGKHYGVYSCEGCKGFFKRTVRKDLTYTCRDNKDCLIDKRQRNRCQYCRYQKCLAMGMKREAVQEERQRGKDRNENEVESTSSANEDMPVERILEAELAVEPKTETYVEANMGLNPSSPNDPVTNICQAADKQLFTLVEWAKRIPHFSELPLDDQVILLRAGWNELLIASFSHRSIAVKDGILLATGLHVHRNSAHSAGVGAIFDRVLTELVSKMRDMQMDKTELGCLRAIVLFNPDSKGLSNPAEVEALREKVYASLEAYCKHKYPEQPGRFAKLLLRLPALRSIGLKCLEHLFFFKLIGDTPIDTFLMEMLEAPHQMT
In words: In Vitro FXR Assay (TK): TK-ECRE-luc reporter in transfected CV-1 cells. It is filed as cell-based. The following applies: 18 hrs incubation, luminescence. The method in brief:
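CV-1 cells transiently cotransfected with hFXR, hRXR, TK-ECRE-luc reporter and pCMX-YFP plasmids in charcoal-stripped serum medium. Serially diluted compounds added for 18 h at 37° C., then cells lysed and luciferase luminescence measured.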
Consider `COc1ccc([C@H]2CC[C@H](CN(c3cccc(-n4cnc(C5CC5)n4)c3)C(=O)[C@H]3CC[C@H](OC(=O)N4CC(O)C4)CC3)CC2)cc1C` [Compound 5, trans-4-((3-(3-Cyclopropyl-1H-1,2,4-triazol-1-yl)phenyl)((trans-4-(4-methoxy-3-methylphenyl)cyclohexyl)methyl)carbamoyl)cyclohexyl 3-hydroxyazetidine-1-carboxylate], for which the EC50 is at most 50 nM.

`COc1ncc([C@H]2CC[C@H](CN(c3cc(-c4coc(C5CC5)n4)ccn3)C(=O)[C@H]3CC[C@H](OC(=O)N4CCN(C)CC4)CC3)CC2)cc1Cl` [Compound 1.07, trans-4-((((trans)-4-(5-Chloro-6-methoxypyridin-3-yl)cyclohexyl)methyl)(4-(2-cyclopropyloxazol-4-yl)pyridin-2-yl)carbamoyl)cyclohexyl 4-methylpiperazine-1-carboxylate] displayed an EC50 of at most 50 nM.

Compound `COc1ccc([C@H]2CC[C@H](CN(c3cc(-c4cnn(CCF)c4)ccn3)C(=O)[C@H]3CC[C@H](OC(=O)N4CC(O)C4)CC3)CC2)cc1C` [Compound 2.23, trans-4-((4-(1-(2-Fluoroethyl)-1H-pyrazol-4-yl)pyridin-2-yl) ((trans-4-(4-methoxy-3-methylphenyl)cyclohexyl)methyl)carbamoyl) cyclohexyl 3-hydroxyazetidine-1-carboxylate] gave an EC50 of at most 50 nM.

`COc1ccc(C23CCC(CN(c4ccc(F)c(-c5cnn(C(C)C)c5)c4)C(=O)[C@H]4CC[C@H](OC(=O)N5CC(O)C5)CC4)(CC2)CC3)cc1C` [Compound 26.03, 4-((4-Fluoro-3-(1-isopropyl-1H-pyrazol-4-yl)phenyl)((4-(4-methoxy-3-methylphenyl)bicyclo[2.2.2]octan-1-yl)methyl)carbamoyl)(trans-cyclohexyl) 3-hydroxyazetidine-1-carboxylate]: the EC50 is at most 50 nM.

Take `COc1ccc(C23CCC(CN(c4cccc(-c5cnn(C6(C)CCC6)c5)n4)C(=O)[C@H]4CC[C@H](OC(=O)N5CC(O)C5)CC4)(CC2)CC3)cc1C` [Compound 25.24, 4-(((4-(4-Methoxy-3-methylphenyl)bicyclo[2.2.2]octan-1-yl)methyl)(6-(1-(1-methylcyclobutyl)-1H-pyrazol-4-y)pyridin-2-yl)carbamoyl)cyclohexyl trans-3-hydroxyazetidine-1-carboxylate]: the EC50 was at most 50 nM.

The compound `COc1ccc(C23CCC(CN(c4nccc(-c5cnn(C6(C)CCC6)c5)n4)C(=O)[C@H]4CC[C@H](OC(=O)N5CC(O)C5)CC4)(CC2)CC3)cc1C` [Compound 25.25, 4-(((4-(4-Methoxy-3-methylphenyl)bicyclo[2.2.2]octan-1-yl)methyl)(4-(1-(1-methylcyclobutyl)-1H-pyrazol-4-yl)pyrimidin-2-yl)carbamoyl)cyclohexyl trans-3-hydroxyazetidine-1-carboxylate] yielded a concentration for a half-maximal effect (EC50) of at most 50 nM.

With `COc1ccc(C23CCC(CN(c4cccc(-c5cnn(C(C)C)c5)c4F)C(=O)[C@H]4CC[C@H](OC(=O)N5CC(O)C5)CC4)(CC2)CC3)cc1C` [Compound 25.04, 4-((2-Fluoro-3-(1-isopropyl-1H-pyrazol-4-yl)phenyl)((4-(4-methoxy-3-methylphenyl)bicyclo[2.2.2]octan-1-yl)methyl)carbamoyl)cyclohexyl trans-3-hydroxyazetidine-1-carboxylate], the EC50 is at most 50 nM.

In the case of `COc1ccc([C@H]2CC[C@H](CN(c3cc(-c4coc(C5CC5)n4)ccn3)C(=O)[C@H]3CC[C@H](OC(=O)NCC(C)(C)CO)CC3)CC2)nc1C` [Compound 1, trans-4-((4-(2-Cyclopropyloxazol-4-yl)pyridin-2-yl)((trans-4-(5-methoxy-6-methylpyridin-2-yl)cyclohexyl)methyl)carbamoyl)cyclohexyl (3-hydroxy-2,2-dimethylpropyl)carbamate], the half-maximal effective concentration (EC50) was at most 50 nM.

In turn, `COc1ccc(C23CCC(CN(c4cc(-c5cnc(C(C)C)s5)ccn4)C(=O)[C@H]4CC[C@H](NC(C)=O)CC4)(CC2)CC3)cc1C` [Compound 9.04, (trans)-4-Acetamido-N-(4-(2-isopropylthiazol-5-yl)pyridin-2-yl)-N-((4-(4-methoxy-3-methylphenyl)bicyclo[2.2.2]octan-1-yl)methyl)cyclohexanecarboxamide] had an EC50 of at most 50 nM.

As for `COc1ccc(C23CCC(CN(c4nccc(-c5cnn(C(C)C)c5)n4)C(=O)[C@H]4CC[C@H](OC(=O)N5CC(O)C5)CC4)(CC2)CC3)cc1C` [Compound 4.60, 4-((4-(1-Isopropyl-1H-pyrazol-4-yl)pyrimidin-2-yl)((4-(4-methoxy-3-methylphenyl)bicyclo [2.2.2]octan-1-yl)methyl)carbamoyl)(trans-cyclohexyl) 3-hydroxyazetidine-1-carboxylate], the 50% effective concentration (EC50) is at most 50 nM.

As for `COc1ccc(C23CCC(CN(c4cc(-c5cnn(C(C)C)c5)ccn4)C(=O)[C@H]4CC[C@H](OC(=O)NC5COC5)CC4)(CC2)CC3)cc1C` [Compound 4.13, 4-((4-(1-Isopropyl-1H-pyrazol-4-yl)pyridin-2-yl)((4-(4-methoxy-3-methylphenyl)bicyclo [2.2.2]octan-1-yl)methyl)carbamoyl)cyclohexyl trans-oxetan-3-ylcarbamate], the concentration for a half-maximal effect (EC50) was at most 50 nM.

Take `COc1ncc([C@H]2CC[C@H](CN(c3cc(-c4cnn(C(C)C)c4)ccn3)C(=O)[C@H]3CC[C@H](OC(=O)N4CC(N(C)C)C4)CC3)CC2)cc1Cl` [Compound 1.08, trans-4-((((trans)-4-(5-Chloro-6-methoxypyridin-3-yl)cyclohexyl)methyl)(4-(1-isopropyl-1H-pyrazol-4-yl)pyridin-2-yl)carbamoyl)cyclohexyl 3-(dimethylamino)azetidine-1-carboxylate]: the half-maximal effective concentration (EC50) is at most 50 nM.

Take `COc1ccc([C@H]2CC[C@H](CN(c3cc(-c4cnn(C(C)C)c4)ccn3)C(=O)[C@H]3CC[C@H](OC(=O)NC(CF)CF)CC3)CC2)cc1C` [Compound 2.35, trans-4-((4-(1-Isopropyl-1H-pyrazol-4-yl)pyridin-2-yl)(((trans)-4-(4-methoxy-3-methylphenyl)cyclohexyl)methyl)carbamoyl) cyclohexyl(1,3-difluoropropan-2-yl) carbamate]: the EC50 was at most 50 nM.

`COc1ccc(C23CCC(CN(c4cc(-c5cnn(C(C)C)c5)ncn4)C(=O)[C@H]4CC[C@H](OC(=O)N5CC(CS(C)(=O)=O)C5)CC4)(CC2)CC3)cc1C` [Compound 23.21, 4-((6-(1-Isopropyl-1H-pyrazol-4-yl)pyrimidin-4-yl)((4-(4-methoxy-3-methylphenyl)bicyclo[2.2.2]octan-1-yl)methyl)carbamoyl)(trans-cyclohexyl) 3-((methylsulfonyl)meth-yl)azetidine-1-carboxylate] had an EC50 of at most 50 nM.

Turning to `COc1ccc([C@H]2CC[C@H](CN(c3cc(-c4cnn(C(C)C)c4)ccn3)C(=O)[C@H]3CC[C@H](OC(=O)NC(C)C)CC3)CC2)cc1C` [Compound 2.17, trans-4-((4-(1-Isopropyl-1H-pyrazol-4-yl)pyridin-2-yl)(((trans)-4-(4-methoxy-3-methylphenyl)cyclohexyl)methyl)carbamoyl) cyclohexyl isopropylcarbamate], the EC50 is at most 50 nM.

Consider `COc1ccc([C@H]2CC[C@H](CN(c3cccc(-c4cnn(C(C)C)c4)c3)C(=O)[C@H]3CC[C@H](NC(=O)OC4CCN(C)CC4)CC3)CC2)cc1C` [Compound 6.08, 1-Methylpiperidin-4-yl (trans-4-((3-(1-isopropyl-1H-pyrazol-4-yl)phenyl)((trans-4-(4-methoxy-3-methylphenyl)cyclohexyl)meth-yl)carbamoyl)cyclohexyl)carbamate], for which the EC50 is 50 to 1000 nM.

The compound `COc1ccc(C23CCC(CN(c4cc(-c5cnn(C(C)C)c5)ccn4)C(=O)[C@H]4CC[C@H](NC(=O)COCCCO)CC4)(CC2)CC3)cc1C` [Compound 13.02, trans-4-(2-(3 Hydroxypropoxy)acetamido)-N-(4-(1-isopropyl-1H-pyrazol-4-yl)pyridin-2-yl)-N-((4-(4-methoxy-3-methylphenyl)bicyclo[2.2.2]octan-1-yl)methyl)cyclohexanecarboxamide] returned a concentration giving a half-maximal response (EC50) of at most 50 nM.

For `COc1ccc(C23CCC(CN(c4cc(-c5cnn(C(C)C)c5)ccc4F)C(=O)[C@H]4CC[C@H](OC(=O)N5CC(O)C5)CC4)(CC2)CC3)cc1C` [Compound 25.03, 4-((2-Fluoro-5-(1-isopropyl-1H-pyrazol-4-yl)phenyl)((4-(4-methoxy-3-methylphenyl)bicyclo[2.2.2]octan-1-yl)methyl)carbamoyl)cyclohexyl trans-3-hydroxyazetidine-1-carboxylate], the 50% effective concentration (EC50) is at most 50 nM.

Source of the values: patent publication US20220056019A1, “FARNESOID X RECEPTOR AGONISTS AND USES THEREOF” (Metacrine, Inc., priority 2018, published 2022).
